{"source": "patent US20250064794A1", "about": "“A THERAPEUTIC COMBINATION COMPRISING A TIGIT ANTAGONIST, A PD-1 ANTAGONIST, AND LENVATINIB” (EISAI R&D MANAGEMENT CO., LTD., priority 2021, published 2025)", "key": {"[1]": {"system": "CT26 tumor", "assay": "Anti-tumor efficacy in CT26 tumor model", "assay_type": "in vivo, female BALB/c mice", "source_text": "The present Example describes anti-tumor effects of a combination of a TIGIT antagonist, a PD-1 antagonist and lenvatinib using a CT26 tumor model.\nPrior to treatment initiation, female BALB/c mice aged 8 weeks weighing between 18 to 21 grams were anesthetized and subcutaneously injected into the rear flank with 0.3×10^6 CT26 log-phase sub-confluent cells. When the mean tumor volume of inoculated animals with CT26 reached approximately 146 mm^3 (13 days later) mice were pair-matched into 8 treatment groups consisting of 10 mice per group.\nAntibody Reagents in this Example Include: • Anti-PD-1 mIgG1 antibody, which is a murinized version of a rat anti-mouse PDT Ab with a mouse IgG1 Fe; • Anti-TIGIT mIgG2a antibody having a mouse Fe region of mIgG2a subtype that is the murine counterpart isotype to human isotype IgG1; • Isotype mIgG1 antibody, which is a mouse IgG1 isotype-matched control monoclonal antibody specific for adenoviral hexon 25; and • Isotype mIgG2a antibody, which is a mouse IgG2a isotype-matched control monoclonal antibody specific for adenoviral hexon 25.\n• 1) 0.5% methylcellulose (Vehicle)+isotype mIgG1 antibody+isotype mIgG2a antibody; • 2) Vehicle+anti-PD-1 mIgG1 antibody+isotype mIgG1 antibody; • 3) Vehicle+isotype mIgG1 antibody+anti-TIGIT mIgG2a antibody; • 4) Lenvatinib+isotype mIgG1 antibody+isotype mIgG2a antibody; • 5) Vehicle+anti-PD-1 mIgG1 antibody+anti-TIGIT mIgG2a antibody; • 6) Lenvatinib+anti-PD-1 mIgG1 antibody+isotype mIgG2a antibody; • 7) Lenvatinib+isotype mIgG1 antibody+anti-TIGIT mIgG2a antibody; and • 8) Lenvatinib+anti-PD-1 mIgG1 antibody+anti-TIGIT mIgG2a antibody.\nVehicle and lenvatinib were orally gavage-dosed once daily (QD) at 10 mg/kg body weight. Isotype control, a mouse monoclonal antibody specific for adenoviral hexon on IgG1 or IgG2a backbones, as well as anti-PD-1 and anti-TIGIT antibodies were dosed intraperitoneally every 5 days at 10 mg/kg body weight. Start of treatments was considered Day 0 and dosing based on described schedules continued as described until Day 40. […]"}, "[2]": {"settings": "in vivo; cited from earlier work"}, "[3]": {"settings": "Day 40, 10 mice per group, lenvatinib 10 mg/kg QD, antibodies 10 mg/kg IP every 5 days"}}}
{"smiles": "COc1cc2nccc(Oc3ccc(NC(=O)NC4CC4)c(Cl)c3)c2cc1C(N)=O", "note": "[Lenvatinib monotherapy, 4-[3-chloro-4-(cyclopropylaminocarbonyl)aminophenoxy]-7-methoxy-6-quinolinecarboxamide]", "values": [{"measurement": "TGI at Day 12", "setting": "[1]; CT26 s.c. tumors, treatment started at 146 mm^3, lenvatinib 10 mg/kg orally QD, antibodies 10 mg/kg intraperitoneally every 5 days, vs Vehicle group at Day 12", "result": "36% (p = 0.014)"}, {"measurement": "End of study CRs (complete tumor regressions)", "setting": "[1]; [3]", "result": "0 CRs, 0 PRs"}, {"measurement": "End of study PRs (partial tumor regressions)", "setting": "[1]; [3]", "result": "0 CRs, 0 PRs"}, {"measurement": "half-life", "setting": "[2]", "result": 28, "unit": "h"}]}
